Results taken from patent publication US11845759B2, “Opioid compounds and uses thereof” (priority 2018, dated 2023).

Columns and labels:
[1] = Hydrolysis in human blood serum at 37° C.; conditions: for 6,14-bis-PEG-Oxy (%): 6,14-bis-PEG-Oxycodone (86%, 14% mono-PEG) in human serum, 37° C.
μ-opioid receptor [2] = molecular target: T1, μ-opioid receptor (Homo sapiens (Human), UniProt P35372); test: [35S]GTPγS μ-opioid receptor functional assay; format: biochemical; conditions: for functional profile at μ-opioid receptor (in words): conclusion from Table 23
[3] = Hydrolysis in pH buffer/EtOH solutions; format: physicochemical
[4] = Hydrolysis in HCl solutions; format: physicochemical; conditions: 6,14-bis-lauroyl-Oxycodone, 1.0N HCl (75% EtOH)
μ-opioid receptor [5] = molecular target: T1, μ-opioid receptor; format: binding
[6] = Hydrolysis in simulated intestinal fluid at 37° C.; conditions: for 6-lauroyl-Oxy (%): 6-lauroyl-Oxycodone, simulated intestinal fluid with 0.5% Polysorbate 80, 37° C.; for 6,14-bis-PEG-Oxy (%): 6,14-bis-PEG-Oxycodone (86%, 14% mono-PEG) in simulated Intestinal fluid (pH=6.8), 37° C.
[7] = Hydrolysis in simulated gastric fluid at 37° C.; conditions: 6,14-bis-PEG-Oxycodone (86%, 14% mono-PEG) in simulated gastric fluid (pH=1.2)
[8] = 6,14-bis-lauroyl-Oxycodone, pH 7 buffer (75% EtOH), 0 h
[9] = 6,14-bis-lauroyl-Oxycodone, pH 7 buffer (75% EtOH), 0.5 h
[10] = 6,14-bis-lauroyl-Oxycodone, pH 7 buffer (75% EtOH), 2 h
[11] = 6,14-bis-lauroyl-Oxycodone, pH 7 buffer (75% EtOH), 4 h
[12] = 6,14-bis-lauroyl-Oxycodone, pH 7 buffer (75% EtOH), 8 h
[13] = 6,14-bis-lauroyl-Oxycodone, pH 7 buffer (75% EtOH), 24 h
[14] = 6,14-bis-lauroyl-Oxycodone, pH 9 buffer (75% EtOH), 0 h
[15] = 6,14-bis-lauroyl-Oxycodone, pH 9 buffer (75% EtOH), 0.5 h
[16] = 6,14-bis-lauroyl-Oxycodone, pH 9 buffer (75% EtOH), 2 h
[17] = 6,14-bis-lauroyl-Oxycodone, pH 9 buffer (75% EtOH), 8.5 h
[18] = 6,14-bis-lauroyl-Oxycodone, pH 9 buffer (75% EtOH), 22.5 h
[19] = 6,14-bis-lauroyl-Oxycodone, pH 11 buffer (75% EtOH), 0 h
[20] = 6,14-bis-lauroyl-Oxycodone, pH 11 buffer (75% EtOH), 0.17 h
[21] = 6,14-bis-lauroyl-Oxycodone, pH 11 buffer (75% EtOH), 0.5 h
[22] = 6,14-bis-lauroyl-Oxycodone, pH 11 buffer (75% EtOH), 2 h
[23] = 6,14-bis-lauroyl-Oxycodone, pH 11 buffer (75% EtOH), 8.5 h
[24] = 6,14-bis-lauroyl-Oxycodone, pH 11 buffer (75% EtOH), 22.5 h
[25] = 6-lauroyl-Oxycodone, pH 9 buffer (75% EtOH), 0 h
[26] = 6-lauroyl-Oxycodone, pH 9 buffer (75% EtOH), 0.5 h
[27] = 6-lauroyl-Oxycodone, pH 9 buffer (75% EtOH), 2 h
[28] = 6-lauroyl-Oxycodone, pH 9 buffer (75% EtOH), 4 h
[29] = 6-lauroyl-Oxycodone, pH 9 buffer (75% EtOH), 8 h
[30] = 6-lauroyl-Oxycodone, pH 11 buffer (75% EtOH), 0 h
[31] = 6-lauroyl-Oxycodone, pH 11 buffer (75% EtOH), 0.5 h
[32] = 6-lauroyl-Oxycodone, pH 11 buffer (75% EtOH), 4 h
[33] = 6-lauroyl-Oxycodone, pH 11 buffer (75% EtOH), 8 h

COc1ccc2c3c1OC1C(OC(C)=O)=CCC4[C@@H](C2)N(C)CC[C@]314 (some centres unmarked) [6-acetyl hydrocodone]
hydrolysis in human blood serum (in words) ([1]; human blood serum (37° C.)): hydrolyzed quickly | % hydrolyzed to hydrocodone ([1]; human blood serum (37° C.), 30 minutes): 99% | % hydrolyzed to hydrocodone ([1]; human blood serum (37° C.), five minutes): 70%

CCCCCCCCCCCC(=O)O[C@@]12CCC(=O)C3Oc4c(OC)ccc5c4[C@@]31CCN(C)[C@@H]2C5 (some centres unmarked) [14-lauroyl oxycodone]
% Response Agonist (μ-opioid receptor [2]; Conc. 100 μM, criteria ≥± 50%): 56% | % Response Antagonist (μ-opioid receptor [2]; Conc. 100 μM, criteria ≥± 50%): 56% | functional profile at μ-opioid receptor (in words) (μ-opioid receptor [2]): partial agonist and a partial antagonist

COc1ccc2c3c1OC1C(=O)CCC4(OC(C)=O)C(C2)N(C)CCC314 (centres unmarked) [14-acetyl oxycodone]
% Response Agonist (μ-opioid receptor [2]; Conc. 3 μM, criteria ≥± 50%): 79% | functional profile at μ-opioid receptor (in words) (μ-opioid receptor [2]): μ-receptor agonist as effective as oxycodone

CCCCCCCCCCCC(=O)OC1=CC[C@@]2(OC(=O)CCCCCCCCCCC)[C@H]3Cc4ccc(OC)c5c4[C@@]2(CCN3C)C1O5 (some centres unmarked) [6,14-bis-lauroyl oxycodone]
6,14-bis-lauroyl-Oxy (%) [3, 8]: 99% | Oxy (%) [3, 8]: 0% | mono-lauroyl-Oxy (%) [3, 8]: 0% | 6,14-bis-lauroyl-Oxy (%) [3, 9]: 98% | Oxy (%) [3, 9]: 0% | mono-lauroyl-Oxy (%) [3, 9]: 1% | 6,14-bis-lauroyl-Oxy (%) [3, 10]: 98% | Oxy (%) [3, 10]: 0% | mono-lauroyl-Oxy (%) [3, 10]: 2% | 6,14-bis-lauroyl-Oxy (%) [3, 11]: 98% | Oxy (%) [3, 11]: 0% | mono-lauroyl-Oxy (%) [3, 11]: 2% | 6,14-bis-lauroyl-Oxy (%) [3, 12]: 98% | Oxy (%) [3, 12]: 0% | mono-lauroyl-Oxy (%) [3, 12]: 2% | 6,14-bis-lauroyl-Oxy (%) [3, 13]: 94.3% | Oxy (%) [3, 13]: 0% | mono-lauroyl-Oxy (%) [3, 13]: 5.7% | 6,14-bis-lauroyl-Oxy (%) [3, 14]: 99% | Oxy (%) [3, 14]: 0% | mono-lauroyl-Oxy (%) [3, 14]: 0% | 6,14-bis-lauroyl-Oxy (%) [3, 15]: 98.7% | Oxy (%) [3, 15]: 0% | mono-lauroyl-Oxy (%) [3, 15]: 1.3% | 6,14-bis-lauroyl-Oxy (%) [3, 16]: 98.4% | Oxy (%) [3, 16]: 0% | mono-lauroyl-Oxy (%) [3, 16]: 1.6% | 6,14-bis-lauroyl-Oxy (%) [3, 17]: 96.2% | Oxy (%) [3, 17]: 0% | mono-lauroyl-Oxy (%) [3, 17]: 3.8% | 6,14-bis-lauroyl-Oxy (%) [3, 18]: 93.4% | Oxy (%) [3, 18]: 0% | mono-lauroyl-Oxy (%) [3, 18]: 6.6% | 6,14-bis-lauroyl-Oxy (%) [3, 19]: 99% | Oxy (%) [3, 19]: 0% | mono-lauroyl-Oxy (%) [3, 19]: 0% | 6,14-bis-lauroyl-Oxy (%) [3, 20]: 83.7% | Oxy (%) [3, 20]: 0.5% | mono-lauroyl-Oxy (%) [3, 20]: 16.3% | 6,14-bis-lauroyl-Oxy (%) [3, 21]: 63.9% | Oxy (%) [3, 21]: 1% | mono-lauroyl-Oxy (%) [3, 21]: 33.1% | 6,14-bis-lauroyl-Oxy (%) [3, 22]: 14.7% | Oxy (%) [3, 22]: 2.8% | mono-lauroyl-Oxy (%) [3, 22]: 60.5% | 6,14-bis-lauroyl-Oxy (%) [3, 23]: 0% | Oxy (%) [3, 23]: 5.4% | mono-lauroyl-Oxy (%) [3, 23]: 94.6% | 6,14-bis-lauroyl-Oxy (%) [3, 24]: 0% | Oxy (%) [3, 24]: 10.2% | mono-lauroyl-Oxy (%) [3, 24]: 89.8% | 6,14-bis-lauroyl-Oxy (%) ([4]; 0 h): 99% | Oxy (%) ([4]; 0 h): 0% | mono-lauroyl-Oxy (%) ([4]; 0 h): 0% | 6,14-bis-lauroyl-Oxy (%) ([4]; 0.5 h): 97% | Oxy (%) ([4]; 0.5 h): 0% | mono-lauroyl-Oxy (%) ([4]; 0.5 h): 2.9% | 6,14-bis-lauroyl-Oxy (%) ([4]; 2 h): 95.1% | Oxy (%) ([4]; 2 h): 0% | mono-lauroyl-Oxy (%) ([4]; 2 h): 4.7% | 6,14-bis-lauroyl-Oxy (%) ([4]; 4 h): 94% | Oxy (%) ([4]; 4 h): 0% | mono-lauroyl-Oxy (%) ([4]; 4 h): 6% | 6,14-bis-lauroyl-Oxy (%) ([4]; 8 h): 91.4% | Oxy (%) ([4]; 8 h): 0% | mono-lauroyl-Oxy (%) ([4]; 8 h): 8.6% | 6,14-bis-lauroyl-Oxy (%) ([4]; 24 h): 77.1% | Oxy (%) ([4]; 24 h): 0% | mono-lauroyl-Oxy (%) ([4]; 24 h): 22.9% | Ki (μ-opioid receptor [5]): 22.2 µM | Ki compared with that of oxycodone (in words) (μ-opioid receptor [5]): significantly higher | binding to μ-opioid receptor (in words) (μ-opioid receptor [5]): does not bind to μ-opioid receptor well

COc1ccc2c3c1OC1C(OC(C)=O)=CC[C@@]4(OC(C)=O)[C@@H](C2)N(C)CC[C@]314 (some centres unmarked) [6,14-Diacetyl oxycodone, 6,14-bis-acetyl Oxycodone]
hydrolysis products (in words) ([6]; mixture in simulated intestinal fluid (37° C., pH 6.8, pancreatine)): hydrolyzes to create additional 6-acetyl oxycodone and 14-acetyl oxycodone

CCCCCCCCCCCC(=O)OC1=CC[C@@]2(O)[C@H]3Cc4ccc(OC)c5c4[C@@]2(CCN3C)C1O5 (some centres unmarked) [6-lauroyl oxycodone]
6-lauroyl-Oxy (%) [3, 25]: 99% | Oxy (%) [3, 25]: 0% | 6-lauroyl-Oxy (%) [3, 26]: 98% | Oxy (%) [3, 26]: 1% | 6-lauroyl-Oxy (%) [3, 27]: 98% | Oxy (%) [3, 27]: 1% | 6-lauroyl-Oxy (%) [3, 28]: 98% | Oxy (%) [3, 28]: 1% | 6-lauroyl-Oxy (%) [3, 29]: 98% | Oxy (%) [3, 29]: 1% | 6-lauroyl-Oxy (%) [3, 30]: 99% | Oxy (%) [3, 30]: 0% | 6-lauroyl-Oxy (%) [3, 31]: 24.5% | Oxy (%) [3, 31]: 75.5% | 6-lauroyl-Oxy (%) [3, 32]: 7.2% | Oxy (%) [3, 32]: 92.8% | 6-lauroyl-Oxy (%) [3, 33]: 6.2% | Oxy (%) [3, 33]: 93.8% | Ki (μ-opioid receptor [5]): 0.096 µM | Ki compared with that of oxycodone (in words) (μ-opioid receptor [5]): comparable | EC50 (μ-opioid receptor [2]): 0.99 µM | % Response Agonist (μ-opioid receptor [2]; Conc. 3 μM, criteria ≥± 50%): 52% | 6-lauroyl-Oxy (%) ([6]; 0 h): 99% | 6-lauroyl-Oxy (%) ([6]; 0.17 h): 56.9% | 6-lauroyl-Oxy (%) ([6]; 0.5 h): 54.8% | 6-lauroyl-Oxy (%) ([6]; 1 h): 52.6% | 6-lauroyl-Oxy (%) ([6]; 2 h): 50.8% | 6-lauroyl-Oxy (%) ([6]; with additional fresh intestinal fluid 30 min): 18.6%

COCCOCCOCC(=O)OC1=CC[C@@]2(O)[C@H]3Cc4ccc(OC)c5c4[C@@]2(CCN3C)C1O5 (some centres unmarked) [6-PEG oxycodone]
Ki (μ-opioid receptor [5]): 0.022 µM | Ki compared with that of oxycodone (in words) (μ-opioid receptor [5]): comparable | EC50 (μ-opioid receptor [2]): 0.39 µM | % Response Agonist (μ-opioid receptor [2]; Conc. 3 μM, criteria ≥± 50%): 90%

COCCOCCOCC(=O)OC1=CCC2(OC(=O)COCCOCCOC)[C@H]3Cc4ccc(OC)c5c4[C@@]2(CCN3C)C1O5 (some centres unmarked) [6,14-bis-PEG oxycodone]
Ki (μ-opioid receptor [5]): 0.052 µM | Ki compared with that of oxycodone (in words) (μ-opioid receptor [5]): comparable | EC50 (μ-opioid receptor [2]): 0.52 µM | % Response Agonist (μ-opioid receptor [2]; Conc. 3 μM, criteria ≥± 50%): 85% | functional profile at μ-opioid receptor (in words) (μ-opioid receptor [2]): μ-receptor agonist as effective as oxycodone | 6,14-bis-PEG-Oxy (%) ([1]; 0 h): 86% | 6,14-bis-PEG-Oxy (%) ([1]; 0.17 h): 0.71% | 6,14-bis-PEG-Oxy (%) ([1]; 1 h): 0% | 6,14-bis-PEG-Oxy (%) ([7]; 0 h): 86% | 6,14-bis-PEG-Oxy (%) ([7]; 1 h): 77.7% | 6,14-bis-PEG-Oxy (%) ([7]; 2 h): 72.5% | 6,14-bis-PEG-Oxy (%) ([7]; 4 h): 65.6% | 6,14-bis-PEG-Oxy (%) ([7]; 20 h): 30.2% | 6,14-bis-PEG-Oxy (%) ([6]; 0 h): 86% | 6,14-bis-PEG-Oxy (%) ([6]; 0.17 h): 0%
